Data: patent US20240180802A1, “USE OF NEUROSPORENE TO PROTECT THE SKIN FROM THE HARMFUL EFFECTS OF BLUE LIGHT” (DEINOVE, priority 2019, published 2024)

Experiments:
[1] = system: HaCaT human keratinocytes; assay: Wound healing test (scratched keratinocyte monolayer); type: cell-based; conditions: neurosporene 0.12 μg/ml; FCS-free DMEM; FIG. 6
Protocol: HaCaT human keratinocytes were seeded into 96-well microplates in a proportion of 33 000 cells/well in DMEM medium supplemented with 10% of FCS and incubated at 37° C. in 5% CO2 and 95% humidity for 24 hours. Once confluence was reached, the cells were washed three times in FCS-free DMEM in order to remove from the wells the growth factors present in the complete medium. The keratinocyte monolayers were then scratched using a “WoundMaker” (Essen Biosciences) which makes it possible to injure cell monolayers in 96-well format. The cells were then washed three times with FCS-free DMEM in order to remove the cell debris. After washing, DMEM medium was added to the wells. EGF (Epidermal growth factor, ng/ml) used as positive control for injury filling or neurosporene (0.12 μg/ml) was added to the wells. The wound healing was observed by phase-contrast microscopy using an “Incucyte ZOOM” (Essen Biosciences), which is an automatic microscope maintained in a CO2 incubator. The images were then processed using the associated software.

[2] = system: HaCaT human keratinocytes; assay: Assaying of ATP after irradiation with blue light; type: cell-based; conditions: 24 h pretreatment with dry bacterial extract in DMSO containing 0.05 μg/ml neurosporene; blue light 460 nm, 100 J/cm2; ATP standardized by live cells; FIG. 10
Protocol: HaCaT human keratinocytes were seeded into 96-well microplates in a proportion of 20 000 cells/well in DMEM supplemented with 10% of fetal calf serum and incubated at 37° C. in 5% CO2 and 95% humidity for 24 hours. After a period of recovery, the cells were pretreated with a dry bacterial extract taken up in DMSO and containing 0.05 μg/ml of neurosporene and a mixture of carotenoids (phytoene, lycopene, zeta-carotene, phytofluene and gamma-carotene), the neurosporene being the major carotenoid of this extract. The cells were incubated at 37° C. in 5% CO2 and 95% humidity for 24 hours. Immediately afterwards, the cells were irradiated with blue light (460 nm, 100 J/cm 2). The cells were then washed three times in 1×PBS buffer and permeabilized with 2% triton at 25° C. for 20 min. The supernatants were then collected in order to quantify the ATP by luminescence (Invitrogen™ ATP Determination Kit, Molecular Probes™). The amount of ATP per well is standardized by the amount of live cells. Each condition was carried out in triplicate.

[3] = system: HaCaT human keratinocytes; assay: Detection of ROSs in keratinocytes under irradiation with blue light; type: cell-based; conditions: 1 h pretreatment, neurosporene 0 to 4 μg/ml or bacterial extract 0 to 15 μg/ml; blue light 460 nm, 150 J/cm2; CellROX deep red; FIGS. 3-4
Protocol: (§1) HaCaT human keratinocytes were seeded into 96-well microplates in a proportion of 10 000 cells/well in DMEM medium supplemented with 10% of FCS (fetal calf serum) and incubated at 37° C. in 5% CO2 and 95% humidity for 24 hours. After this period of recovery, the cells were pretreated with either 43 μg/ml of α-tocopherol or with an increasing range of neurosporene (from 0 to 4 μg/ml) or with an increasing range of bacterial extract comprising neurosporene (from 0 to 15 μg/ml) for one hour. At the end of the pretreatment, 5 μM of “CellROX deep red” (a label which becomes fluorescent in the presence of reactive oxygen species (ROS)) and Hoechst (10 μg/ml) (which becomes fluorescent when it is bound to the DNA in the nucleus) were added to the medium. Immediately afterwards, the cells were treated either with UVA radiation (20 J/cm 2), or with a blue light (460 nm, 150 J/cm 2). The cells were then washed three times in 1×DPBS buffer and observed under a fluorescence microscope (CellInsight CX7, ThermoFisher). The fluorescence signals were then analyzed using the HCS Studio software (ThermoFisher) in order to quantify the ROSs produced in the cytosol.

[4] = system: explants of human skin of phototype IV; assay: Quantification of the melanin in human skin explants irradiated with blue light; conditions: topical refined plant oil with 12.5 ppm neurosporene and 4 ppm other carotenoids, 5 mg/cm2 daily; blue light 447 nm, 202.6 J/cm2; Fontana-Masson staining; p-value<0.01
Protocol: Explants of human skin of phototype IV were placed under culture conditions. After 24 h, three conditions were studied: a nontreated control, a topical treatment with refined plant oil alone or a topical treatment with a preparation of refined plant oil containing neurosporene (12.5 ppm of neurosporene and 4 ppm of a mixture of carotenoids, namely phytoene, lycopene, zeta-carotene, phytofluene and gamma-carotene). The products were applied every day (5 mg/cm 2) for 3 days. Each condition was carried out in triplicate.
After 3 days of pretreatment, a blue light stress was applied by irradiation at the wavelength of 447 nm each day for 3 days, corresponding to a dose of 202.6 J/cm^2. After each irradiation, the explants were again and, depending on the conditions, not treated or treated either with plant oil alone or with the plant oil containing neurosporene.
The melanin was then quantified after analysis of images taken with an epifluorescence microscope (Zeiss, Axio Imager Z1, ApoTome, Zen2 software blue edition) and staining according to the Fontana Masson method. The images were then analyzed on ImageJ. The area of melanin staining was standardized by the length of the basal lamina. The experiment was carried out in triplicate for each condition (nontreated, treatment with vegetable oil alone, treatment with vegetable oil enriched in neurosporene).

[5] = ABTS radical cation reduction test; type: physicochemical; conditions: 5 min at ambient temperature, expressed as α-tocopherol equivalent, FIG. 7
Protocol: The ABTS test is based on the use of colored cationic radicals. In the presence of a molecule having an antioxidant power, the colored cationic radical is reduced and loses its color. Consequently, the antioxidant power of a molecule can be measured by the decoloration of the radical.
A solution was prepared by mixing ABTS (7 mM), potassium persulfate (2.45 mM) and water (qs 5 ml) and incubated for 16 hours at ambient temperature in the dark. Next, a range of eight concentrations of neurosporene, lycopene, α-tocopherol, 9Z-β carotene, zeaxanthin, trolox and D-tocotrienol was dispensed into 96-well microplates before adding the ABTS solution prepared above. The microplates were then incubated at ambient temperature for 5 min, and the coloration was then analyzed at 250 nm using a microplate reader.

[6] = system: HaCaT human keratinocytes; assay: Detection of ROSs in keratinocytes under irradiation with UVA radiation; type: cell-based; conditions: 1 h pretreatment, neurosporene 0 to 4 μg/ml or bacterial extract 0 to 15 μg/ml; UVA 20 J/cm2; CellROX deep red; FIGS. 1-2
Protocol: as §1

SMILES: CC(C)=CCC/C(C)=C/C=C/C(C)=C/C=C/C(C)=C/C=C/C=C(C)/C=C/C=C(\C)CC/C=C(\C)CCC=C(C)C [neurosporene, 7,8-dihydro-ψ,ψ-carotene]
- improvement of wound healing (injury filling by cell confluence) compared to nontreated control [1]: 35%
- effect on intracellular ATP reduction induced by blue light [2]: makes it possible to limit the ATP reduction induced by blue light
- antioxidant power against blue light (ROSs produced in the cytosol) [3]: strong antioxidant power
- melanin production induced by blue light, change compared to the control exposed without treatment [4]: −25%
- antioxidant power relative to reference molecule α-tocopherol [5]: two times greater
- antioxidant power against UVA radiation (ROSs produced in the cytosol) [6]: strong antioxidant power
